According to patent US7594984B2, “Apparatus and method for measuring activity signals of biological samples” (Panasonic Corporation, priority 2002, dated 2009):

Experiments:
[1] = test system: nerve cells prepared from lymnaea; test: Extracellular recording before and after Carbachol administration; normal distribution of standard deviations (mean value, half-width); format: cell-based; conditions: 50-μM Carbachol
Text: The normal distribution approximation unit 103 classifies a plurality of standard deviations obtained in the group SD calculation unit 102 into a plurality of classes set at predetermined widths. The classes are plotted on the X axis and the number of standard deviations classified into each class is plotted on the Y axis, to obtain a graph. The graph obtained is approximated to a normal distribution. Methods for approximating the graph to a normal distribution include, for example, various curve fitting analyses, such as exponential decrease, exponential increase, Gaussian, Lorentzian, Sigma, Multipeak and non-linear methods. The mean value/half-width calculation unit 106 calculates the mean value and half-width (the half-peak height width) of the normal distribution obtained.
The apparatus of the present embodiment thus configured was used to measure how the chemical substance Carbachol acts on nerve cells prepared from lymnaea. More specifically, the normal distribution approximation unit 103 produced a frequency distribution of the standard deviations on the basis of signals that were detected by the measurement unit 101 before and after Carbachol was administered to lymnaea nerve cells at 50-μM concentration. […]

[2] = test system: nerve cells prepared from lymnaea; test: Extracellular recording of nerve cell electrical signals at a series of Carbachol concentrations; mean value of standard deviations; format: cell-based; conditions: concentrations 0-100, SD sampled every 100 ms from 10-second data, FIG. 10
Text: FIG. 9 is a block diagram schematically illustrating a configuration of the apparatus for measuring the activity signals of biological samples according to Embodiment 3. The apparatus employs the apparatus of Embodiment 1 as a measurement unit (a signal source) 101, and has a function for processing electrical signals detected by the measurement unit 101. As shown in FIG. 9(A), the apparatus is provided with a group SD (standard deviation) calculation unit 102, a mean value calculation unit 105, an activation evaluation unit 120 and a data display unit 110. According to the group SD calculation unit 102, the standard deviation of one group consisting of a predetermined number of samples is calculated on the basis of time-series data detected by the measurement unit 101. […] According to the mean value calculation unit 105, the mean value of the obtained plurality of standard deviations is calculated. […] Therefore, according to the activation calculation unit 120, activation can be calculated based on the input information and can be classified by comparison with pre-stored information. […] According to the apparatus, noise can be removed from digital signals (predetermined time-series data) captured at a fixed sampling rate, and then significant signals showing, for example, the opening and closing of ion channels can be extracted, measured and classified. […]

Compound: C[N+](C)(C)CCOC(N)=O [Carbachol]
- effect on ion channels of the nerve cells ([1]; lymnaea nerve cells): activates the ion channels
- mean value of the normal distribution of standard deviations after administration ([1]; SD every 5 ms from 10-second signals, before administration 0.478, FIG. 12): 0.703
- Carbachol concentration at which the mean value of the standard deviations reaches its peak [2]: 10 µM
